Settings: mouse, microsomes, 1 h
Description: Metabolic stability in mouse liver microsomes assessed as reduction in NADPH incubated for 60 mins by fluorescence based assay relative to control

Stability: Stable
SMILES: CCOC(=O)N1CCC(NC(=S)Nc2cc(Cl)cc(Cl)c2)CC1
